Source: patent US20240109917A1 (ACTELION PHARMACEUTICALS LTD, priority 2020, published 2024)
Read-outs that look alike come from different tables or passages of the source.

What was measured:
PDGFRβ = PDGFRβ (Rattus norvegicus (Rat), UniProt Q05030); assay: PDGFRβ Cellular Assay (PDGFRb P-Y751 HTRF in A10 cells stimulated with PDGF-BB); assay type: cell-based
Outline: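 Phospho-Y751 PDGFRβ was measured by HTRF in lysates of A10 rat cells. Cells received compound for 3 hours before PDGF-BB stimulation (100 ng/mL working stock).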

[1] = biological target: Tb-labeled inactive PDGFRβ (Homo sapiens (Human), UniProt P09619); assay: PDGFRβ LanthaScreen Assay; assay type: binding; conditions: read-out: PDGFR Lantha IC50
Sequence of Tb-labeled inactive PDGFRβ (P09619 33-1106): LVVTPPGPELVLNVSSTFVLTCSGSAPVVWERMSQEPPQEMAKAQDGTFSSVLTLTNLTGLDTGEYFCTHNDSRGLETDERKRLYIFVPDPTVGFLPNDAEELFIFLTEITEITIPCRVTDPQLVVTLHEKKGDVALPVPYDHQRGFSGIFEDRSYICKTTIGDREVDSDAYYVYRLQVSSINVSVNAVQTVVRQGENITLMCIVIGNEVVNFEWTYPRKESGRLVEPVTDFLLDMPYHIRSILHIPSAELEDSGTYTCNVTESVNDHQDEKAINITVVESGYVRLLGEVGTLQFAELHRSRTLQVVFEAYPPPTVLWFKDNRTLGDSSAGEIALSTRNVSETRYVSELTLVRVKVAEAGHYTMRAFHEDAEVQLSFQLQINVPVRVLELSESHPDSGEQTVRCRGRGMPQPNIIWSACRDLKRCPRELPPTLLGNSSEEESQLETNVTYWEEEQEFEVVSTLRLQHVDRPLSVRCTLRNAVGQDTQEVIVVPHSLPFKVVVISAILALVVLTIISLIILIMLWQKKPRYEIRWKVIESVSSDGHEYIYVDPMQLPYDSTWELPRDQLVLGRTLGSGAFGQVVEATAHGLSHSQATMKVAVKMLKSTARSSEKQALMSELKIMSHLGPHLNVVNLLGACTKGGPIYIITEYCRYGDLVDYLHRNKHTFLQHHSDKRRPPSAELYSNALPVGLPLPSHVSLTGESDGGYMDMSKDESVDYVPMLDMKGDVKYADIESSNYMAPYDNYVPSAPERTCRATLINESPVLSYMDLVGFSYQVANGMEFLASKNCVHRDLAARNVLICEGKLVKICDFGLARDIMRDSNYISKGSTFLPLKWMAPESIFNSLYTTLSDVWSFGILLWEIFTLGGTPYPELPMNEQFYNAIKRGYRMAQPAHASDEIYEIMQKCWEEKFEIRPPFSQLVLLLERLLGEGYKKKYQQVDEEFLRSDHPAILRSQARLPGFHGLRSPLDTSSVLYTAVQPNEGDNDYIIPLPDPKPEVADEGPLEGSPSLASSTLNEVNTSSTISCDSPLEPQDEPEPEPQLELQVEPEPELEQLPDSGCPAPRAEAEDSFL

Sequence of PDGFRβ (Q05030 32-1097): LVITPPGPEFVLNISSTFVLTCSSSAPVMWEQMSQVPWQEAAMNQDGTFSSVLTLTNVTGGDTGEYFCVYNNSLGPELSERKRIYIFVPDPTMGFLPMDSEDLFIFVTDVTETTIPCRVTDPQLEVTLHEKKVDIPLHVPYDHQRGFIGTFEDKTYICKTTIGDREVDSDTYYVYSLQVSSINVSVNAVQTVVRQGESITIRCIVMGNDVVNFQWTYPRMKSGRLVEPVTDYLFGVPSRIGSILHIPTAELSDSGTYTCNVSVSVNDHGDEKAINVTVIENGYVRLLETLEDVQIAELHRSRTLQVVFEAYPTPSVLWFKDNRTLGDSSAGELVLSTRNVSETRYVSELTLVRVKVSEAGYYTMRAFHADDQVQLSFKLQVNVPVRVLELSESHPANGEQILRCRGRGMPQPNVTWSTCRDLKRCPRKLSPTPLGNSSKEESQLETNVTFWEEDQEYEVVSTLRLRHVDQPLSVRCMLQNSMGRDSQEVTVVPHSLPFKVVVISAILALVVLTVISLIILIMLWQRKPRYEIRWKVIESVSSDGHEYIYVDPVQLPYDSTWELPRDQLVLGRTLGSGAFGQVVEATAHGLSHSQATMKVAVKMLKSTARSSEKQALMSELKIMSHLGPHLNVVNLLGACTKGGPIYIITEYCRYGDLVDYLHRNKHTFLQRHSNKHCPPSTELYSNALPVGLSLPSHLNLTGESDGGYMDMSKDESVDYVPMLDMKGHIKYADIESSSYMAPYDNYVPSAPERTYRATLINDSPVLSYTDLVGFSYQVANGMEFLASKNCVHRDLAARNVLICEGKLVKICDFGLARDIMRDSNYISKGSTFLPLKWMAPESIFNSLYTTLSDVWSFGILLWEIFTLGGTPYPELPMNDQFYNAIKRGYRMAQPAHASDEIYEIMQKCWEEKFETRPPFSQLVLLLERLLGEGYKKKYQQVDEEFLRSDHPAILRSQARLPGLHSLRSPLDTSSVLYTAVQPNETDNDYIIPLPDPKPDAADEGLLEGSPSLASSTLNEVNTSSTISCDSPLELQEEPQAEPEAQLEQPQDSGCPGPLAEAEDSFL

Structure (SMILES) | IC50 (PDGFRβ; PDGFR Cellular IC50) [nM] | IC50 [1] [nM] | IC50 (PDGFRβ; read-out: PDGFR Cellular IC50) [nM]
COCCn1cc(-c2cn3ncc(C(=O)Nc4cc(NC(=O)CN5C[C@H]6CC[C@@H]5C6)cnc4C)c3s2)cn1 [Example 334, N-(5-(2-((1R,4S)-2-azabicyclo[2.2.1]heptan-2-yl)acetamido)-2-methylpyridin-3-yl)-2-(1-(2-methoxyethyl)-1H-pyrazol-4-yl)pyrazolo[5,1-b]thiazole-7-carboxamide] | 11.7 | 9.1 | –
Cc1ncc(NC(=O)CN2CCC3(CC2)CC3)cc1NC(=O)c1cnn2cc(-c3cnn(CCO)c3)sc12 [Example 31, N-(5-(2-(6-azaspiro[2.5]octan-6-yl)acetamido)-2-methylpyridin-3-yl)-2-(1-(2-hydroxyethyl)-1H-pyrazol-4-yl)pyrazolo[5,1-b]thiazole-7-carboxamide] | – | 5.1 | 11.1
COCCn1cc(-c2cn3ncc(C(=O)Nc4cc(NC(=O)CN5CCCC6(CC6)C5)cnc4C)c3s2)cn1 [Example 335, N-(5-(2-(5-azaspiro[2.5]octan-5-yl)acetamido)-2-methylpyridin-3-yl)-2-(1-(2-methoxyethyl)-1H-pyrazol-4-yl)pyrazolo[5,1-b]thiazole-7-carboxamide] | – | 3 | 3.5
Cc1ncc(NC(=O)CN2CCC[C@@H]2C)cc1NC(=O)c1cnn2cc(-c3ccnc(N4CCOCC4)c3)sc12 [Example 352, (S)—N-(2-methyl-5-(2-(2-methylpyrrolidin-1-yl)acetamido)pyridin-3-yl)-2-(2-morpholinopyridin-4-yl)pyrazolo[5,1-b]thiazole-7-carboxamide] | – | 4.7 | 2.8
COc1ncc(-c2cn3ncc(C(=O)Nc4cc(NC(=O)CN5CC(C)(C)C5)cnc4C)c3s2)c(OC)n1 [Example 392, 2-(2,4-dimethoxypyrimidin-5-yl)-N-(5-(2-(3,3-dimethylazetidin-1-yl)acetamido)-2-methylpyridin-3-yl)pyrazolo[5,1-b]thiazole-7-carboxamide] | 4.8 | 4.6 | –
COc1ccc(-c2cn3ncc(C(=O)Nc4cc(NC(=O)CN5CC(C)(C)C5)cnc4C)c3s2)cn1 [Example 395, N-(5-(2-(3,3-dimethylazetidin-1-yl)acetamido)-2-methylpyridin-3-yl)-2-(6-methoxypyridin-3-yl)pyrazolo[5,1-b]thiazole-7-carboxamide] | – | 7.3 | 6.2
Cc1ncc(NC(=O)CN2CCC(C)(C)C2)cc1NC(=O)c1cnn2cc(-c3cnn(CCO)c3)sc12 [Example 28, N-(5-(2-(3,3-dimethylpyrrolidin-1-yl)acetamido)-2-methylpyridin-3-yl)-2-(1-(2-hydroxyethyl)-1H-pyrazol-4-yl)pyrazolo[5,1-b]thiazole-7-carboxamide] | – | 4.2 | 13.6
COCC1CN(CC(=O)Nc2cnc(C)c(NC(=O)c3cnn4cc(-c5cnn(C)c5)sc34)c2)CC(C)(C)O1 (stereo not shown) [Example 383, N-(5-(2-(6-(methoxymethyl)-2,2-dimethylmorpholino)acetamido)-2-methylpyridin-3-yl)-2-(1-methyl-1H-pyrazol-4-yl)pyrazolo[5,1-b]thiazole-7-carboxamide] | – | 7.8 | 15
CCn1nccc1-c1cn2ncc(C(=O)Nc3cc(NC(=O)CN4CC(C)(C)C4)cnc3C)c2s1 [Example 388, N-(5-(2-(3,3-dimethylazetidin-1-yl)acetamido)-2-methylpyridin-3-yl)-2-(1-ethyl-1H-pyrazol-5-yl)pyrazolo[5,1-b]thiazole-7-carboxamide] | – | 7.4 | 5.1
CCc1ncccc1-c1cn2ncc(C(=O)Nc3cc(NC(=O)CN4CC(C)(C)C4)cnc3C)c2s1 [Example 391, N-(5-(2-(3,3-dimethylazetidin-1-yl)acetamido)-2-methylpyridin-3-yl)-2-(2-ethylpyridin-3-yl)pyrazolo[5,1-b]thiazole-7-carboxamide] | – | 18.4 | 10.4
COc1cc(-c2cn3ncc(C(=O)Nc4cc(NC(=O)CN5CC(C)(C)C5)cnc4C)c3s2)c(OC)nn1 [Example 393, 2-(3,6-dimethoxypyridazin-4-yl)-N-(5-(2-(3,3-dimethylazetidin-1-1)acetamido)-2-methylpyridin-3-yl)pyrazolo[5,1-b]thiazole-7-carboxamide] | – | 5.1 | 3.5
Cc1ncc(NC(=O)[C@@H]2CCCN2C(C)C)cc1NC(=O)c1cnn2cc(-c3cnn4c3OCCC4)sc12 [Example 346, (S)-2-(6,7-dihydro-5H-pyrazolo[5,1-b][1,3]oxazin-3-yl)-N-(5-(1-isopropylpyrrolidine-2-carboxamido)-2-methylpyridin-3-yl)pyrazolo[5,1-b]thiazole-7-carboxamide] | – | 6.5 | 6.8
COc1ncccc1-c1cn2ncc(C(=O)Nc3cc(NC(=O)CN4CC(C)(C)C4)cnc3C)c2s1 [Example 369, N-(5-(2-(3,3-dimethylazetidin-1-yl)acetamido)-2-methylpyridin-3-yl)-2-(2-methoxypyridin-3-yl)pyrazolo[5,1-b]thiazole-7-carboxamide] | – | 1.4 | 1.6
COc1ncccc1-c1cn2ncc(C(=O)Nc3cc(NC(=O)CN4CCC4)cnc3C)c2s1 [Example 397, N-(5-(2-(azetidin-1-yl)acetamido)-2-methylpyridin-3-yl)-2-(2-methoxypyridin-3-yl)pyrazolo[5,1-b]thiazole-7-carboxamide] | 7.6 | 22.1 | –
Cc1ncc(NC(=O)CN2CC(C)(C)C2)cc1NC(=O)c1cnn2cc(-c3cncnc3C)sc12 [Example 398, N-(5-(2-(3,3-dimethylazetidin-1-yl)acetamido)-2-methylpyridin-3-yl)-2-(4-methylpyrimidin-5-yl)pyrazolo[5,1-b]thiazole-7-carboxamide] | – | 181 | 169
COc1ccncc1-c1cn2ncc(C(=O)Nc3cc(NC(=O)CN4C[C@H](C)O[C@@H](C)C4)cnc3C)c2s1 (relative stereo) [Example 385, N-(5-(2-(trans-2,6-dimethylmorpholino)acetamido)-2-methylpyridin-3-yl)-2-(4-methoxypyridin-3-yl)pyrazolo[5,1-b]thiazole-7-carboxamide] | – | 4.9 | 9.5
Cc1ncc(NC(=O)C2CN(C(C)C)C2)cc1NC(=O)c1cnn2cc(-c3cn(C)nc3C)sc12 [Example 354, 2-(1,3-dimethyl-1H-pyrazol-4-yl)-N-(5-(1-isopropylazetidine-3-carboxamido)-2-methylpyridin-3-yl)pyrazolo[5,1-b]thiazole-7-carboxamide] | – | 4.3 | 78.8
COCCn1cc(-c2cn3ncc(C(=O)Nc4cc(NC(=O)C5CCN(C(C)C)C5)cnc4C)c3s2)cn1 (stereo not shown) [Example 345, N-(5-(1-isopropylpyrrolidine-3-carboxamido)-2-methylpyridin-3-yl)-2-(1-(2-methoxyethyl)-1H-pyrazol-4-yl)pyrazolo[5,1-b]thiazole-7-carboxamide] | – | 56.9 | 222
Cc1ncc(S(=O)(=O)NCCN2CCCC2(C)C)cc1NC(=O)c1cnn2cc(-c3cnn(C)c3)sc12 [Example 359, N-(5-(N-(2-(2,2-dimethylpyrrolidin-1-yl)ethyl)sulfamoyl)-2-methylpyridin-3-yl)-2-(1-methyl-1H-pyrazol-4-yl)pyrazolo[5,1-b]thiazole-7-carboxamide] | – | 451 | 365
COc1ncccc1-c1cn2ncc(C(=O)Nc3cc(NC(=O)CN4CC5(CCOCC5)C4)cnc3C)c2s1 [Example 403, N-(5-(2-(7-oxa-2-azaspiro[3.5]nonan-2-yl)acetamido)-2-methylpyridin-3-yl)-2-(2-methoxypyridin-3-yl)pyrazolo[5,1-b]thiazole-7-carboxamide carboxamide] | – | 1.3 | 3.3
Cc1ncc(NC(=O)CN2C[C@H](C)O[C@@H](C)C2)cc1NC(=O)c1cnn2cc(-c3cnn4c3OCCC4)sc12 (relative stereo) [Example 375, 2-(6,7-dihydro-5H-pyrazolo[5,1-b][1,3]oxazin-3-yl)-N-(5-(2-(trans-2,6-dimethylmorpholino)acetamido)-2-methylpyridin-3-yl)pyrazolo[5,1-b]thiazole-7-carboxamide] | – | 4.5 | 10.2
Cc1ncc(NC(=O)CN2C[C@H](C)O[C@@H](C)C2)cc1NC(=O)c1cnn2cc(-c3cnn(C4CC4)c3)sc12 (relative stereo) [Example 382, 2-(1-cyclopropyl-1H-pyrazol-4-yl)-N-(5-(2-(trans-2,6-dimethylmorpholino)acetamido)-2-methylpyridin-3-yl)pyrazolo[5,1-b]thiazole-7-carboxamide] | – | 5.3 | 7.6
COCCn1cc(-c2cn3ncc(C(=O)Nc4cc(NC(=O)CN5CCCC56CCC6)cnc4C)c3s2)cn1 [Example 332, N-(5-(2-(5-azaspiro[3.4]octan-5-yl)acetamido)-2-methylpyridin-3-yl)-2-(1-(2-methoxyethyl)-1H-pyrazol-4-yl)pyrazolo[5,1-b]thiazole-7-carboxamide] | – | 4.1 | 4.5
COCCn1cc(-c2cn3ncc(C(=O)Nc4cc(NC(=O)[C@@H]5CCCN5C(C)C)cnc4C)c3s2)cn1 [Example 343, (S)—N-(5-(1-isopropylpyrrolidine-2-carboxamido)-2-methylpyridin-3-yl)-2-(1-(2-methoxyethyl)-1H-pyrazol-4-yl)pyrazolo[5,1-b]thiazole-7-carboxamide] | – | 84.8 | 47.9
COCCn1cc(-c2cn3ncc(C(=O)Nc4cc(NC(=O)CN5CCCCC5)cnc4C)c3s2)cn1 [Example 338, 2-(1-(2-methoxyethyl)-1H-pyrazol-4-yl)-N-(2-methyl-5-(2-(piperidin-1-yl)acetamido)pyridin-3-yl)pyrazolo[5,1-b]thiazole-7-carboxamide] | – | 4.8 | 4.6
COc1ncccc1-c1cn2ncc(C(=O)Nc3cc(NC(=O)CN4CC(C)C4)cnc3C)c2s1 [Example 405, 2-(2-methoxypyridin-3-yl)-N-(2-methyl-5-(2-(3-methylazetidin-1-yl)acetamido)pyridin-3-yl)pyrazolo[5,1-b]thiazole-7-carboxamide] | – | 3.9 | 3.8
